According to ChEMBL document CHEMBL5291721, “A preclinical secondary pharmacology resource illuminates target-adverse drug reaction associations of marketed drugs” (Nat Commun, 2023):

What was measured:
Bile salt export pump = Bile salt export pump (Homo sapiens, UniProt O95342); type: functional
Adenosine receptor A3 = target: T1, Adenosine receptor A3 (Homo sapiens, UniProt P0DMS8)
T1 sequence (P0DMS8 whole entry): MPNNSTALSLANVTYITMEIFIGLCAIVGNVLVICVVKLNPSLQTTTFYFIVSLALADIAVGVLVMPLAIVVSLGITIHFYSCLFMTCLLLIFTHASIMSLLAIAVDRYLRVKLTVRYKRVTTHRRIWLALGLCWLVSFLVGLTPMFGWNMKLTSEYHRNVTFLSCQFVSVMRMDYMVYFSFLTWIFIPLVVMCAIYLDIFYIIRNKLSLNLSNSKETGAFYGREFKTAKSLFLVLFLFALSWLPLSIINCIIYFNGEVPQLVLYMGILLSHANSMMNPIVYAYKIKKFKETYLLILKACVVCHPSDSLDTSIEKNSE

[1] = target: T2, Alpha-2A adrenergic receptor (Homo sapiens, UniProt P08913); type: functional, cell-based
T2 sequence (P08913 whole entry): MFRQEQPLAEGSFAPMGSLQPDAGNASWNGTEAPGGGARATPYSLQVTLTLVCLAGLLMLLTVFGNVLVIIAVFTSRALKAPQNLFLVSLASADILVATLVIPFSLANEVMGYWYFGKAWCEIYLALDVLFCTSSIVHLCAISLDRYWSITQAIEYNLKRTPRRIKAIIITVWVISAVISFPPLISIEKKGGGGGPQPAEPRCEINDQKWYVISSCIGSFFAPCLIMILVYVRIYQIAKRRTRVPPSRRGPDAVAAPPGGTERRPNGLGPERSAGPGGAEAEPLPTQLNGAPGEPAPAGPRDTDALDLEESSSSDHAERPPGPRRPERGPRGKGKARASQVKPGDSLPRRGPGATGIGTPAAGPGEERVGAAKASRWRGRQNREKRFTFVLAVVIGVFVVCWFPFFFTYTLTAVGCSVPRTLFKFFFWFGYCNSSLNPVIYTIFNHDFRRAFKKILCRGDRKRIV

[2] = target: T3, Alpha-2C adrenergic receptor (Homo sapiens, UniProt P18825); type: functional
T3 sequence (P18825 whole entry): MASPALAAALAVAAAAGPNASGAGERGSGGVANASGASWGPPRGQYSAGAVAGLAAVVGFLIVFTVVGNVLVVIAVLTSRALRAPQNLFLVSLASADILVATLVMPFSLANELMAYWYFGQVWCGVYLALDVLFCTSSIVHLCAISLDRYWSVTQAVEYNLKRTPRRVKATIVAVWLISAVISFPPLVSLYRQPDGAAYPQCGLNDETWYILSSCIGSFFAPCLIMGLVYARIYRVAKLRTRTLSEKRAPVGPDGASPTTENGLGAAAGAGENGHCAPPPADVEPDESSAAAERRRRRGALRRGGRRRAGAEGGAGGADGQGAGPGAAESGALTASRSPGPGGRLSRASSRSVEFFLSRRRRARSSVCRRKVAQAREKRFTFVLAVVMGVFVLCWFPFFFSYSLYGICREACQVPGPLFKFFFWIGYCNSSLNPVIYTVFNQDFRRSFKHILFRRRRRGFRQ

[3] = target: T4, Muscarinic acetylcholine receptor M2 (Homo sapiens, UniProt P08172); type: functional, cell-based
T4 sequence (P08172 whole entry): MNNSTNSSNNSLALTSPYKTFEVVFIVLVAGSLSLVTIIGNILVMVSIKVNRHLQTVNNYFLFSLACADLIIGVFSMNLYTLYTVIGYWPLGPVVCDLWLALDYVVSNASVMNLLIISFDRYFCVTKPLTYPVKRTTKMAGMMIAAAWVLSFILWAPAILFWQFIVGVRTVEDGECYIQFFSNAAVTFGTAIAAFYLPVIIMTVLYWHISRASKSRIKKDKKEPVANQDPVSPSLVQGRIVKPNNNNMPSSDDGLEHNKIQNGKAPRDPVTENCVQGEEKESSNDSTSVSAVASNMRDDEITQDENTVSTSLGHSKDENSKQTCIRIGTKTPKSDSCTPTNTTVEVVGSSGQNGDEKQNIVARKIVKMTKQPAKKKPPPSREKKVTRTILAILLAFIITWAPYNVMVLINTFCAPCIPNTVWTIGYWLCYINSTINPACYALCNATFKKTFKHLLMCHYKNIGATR

D(1A) dopamine receptor = D(1A) dopamine receptor (Homo sapiens, UniProt P21728); type: functional, cell-based
[4] = target: 5-hydroxytryptamine receptor 2B (Homo sapiens, UniProt P41595); type: functional, cell-based
[5] = target: T5, 5-hydroxytryptamine receptor 3A (Homo sapiens, UniProt P46098); type: functional
T5 sequence (P46098 whole entry): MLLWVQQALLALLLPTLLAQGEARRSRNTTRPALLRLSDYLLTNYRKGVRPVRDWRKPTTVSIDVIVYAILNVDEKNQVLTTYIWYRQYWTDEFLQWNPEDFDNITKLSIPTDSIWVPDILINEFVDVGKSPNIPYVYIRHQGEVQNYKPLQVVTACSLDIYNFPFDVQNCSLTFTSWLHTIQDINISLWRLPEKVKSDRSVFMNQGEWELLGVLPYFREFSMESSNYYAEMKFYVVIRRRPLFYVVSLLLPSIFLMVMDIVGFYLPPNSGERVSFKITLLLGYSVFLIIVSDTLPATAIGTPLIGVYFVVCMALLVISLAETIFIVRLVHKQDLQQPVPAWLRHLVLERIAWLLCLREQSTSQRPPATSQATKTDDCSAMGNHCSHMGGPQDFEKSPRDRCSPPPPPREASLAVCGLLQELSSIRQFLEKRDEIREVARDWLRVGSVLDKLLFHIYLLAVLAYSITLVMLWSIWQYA

[6] = target: Voltage-gated inwardly rectifying potassium channel KCNH2 (Homo sapiens, UniProt Q12809); type: functional; settings: read-out: AC50
Motilin receptor = Motilin receptor (Homo sapiens, UniProt O43193)
[7] = target: Delta-type opioid receptor (Homo sapiens, UniProt P41143)
[8] = target: 3',5'-cyclic-AMP phosphodiesterase 4D (Homo sapiens, UniProt Q08499); type: functional
[9] = target: Sodium-dependent dopamine transporter (Homo sapiens, UniProt Q01959)
[10] = target: cGMP-inhibited 3',5'-cyclic phosphodiesterase 3A (Homo sapiens, UniProt Q14432); type: functional
Also: assay procedure not described here.

Chain of cGMP-inhibited 3',5'-cyclic phosphodiesterase 3A (Q14432 whole entry): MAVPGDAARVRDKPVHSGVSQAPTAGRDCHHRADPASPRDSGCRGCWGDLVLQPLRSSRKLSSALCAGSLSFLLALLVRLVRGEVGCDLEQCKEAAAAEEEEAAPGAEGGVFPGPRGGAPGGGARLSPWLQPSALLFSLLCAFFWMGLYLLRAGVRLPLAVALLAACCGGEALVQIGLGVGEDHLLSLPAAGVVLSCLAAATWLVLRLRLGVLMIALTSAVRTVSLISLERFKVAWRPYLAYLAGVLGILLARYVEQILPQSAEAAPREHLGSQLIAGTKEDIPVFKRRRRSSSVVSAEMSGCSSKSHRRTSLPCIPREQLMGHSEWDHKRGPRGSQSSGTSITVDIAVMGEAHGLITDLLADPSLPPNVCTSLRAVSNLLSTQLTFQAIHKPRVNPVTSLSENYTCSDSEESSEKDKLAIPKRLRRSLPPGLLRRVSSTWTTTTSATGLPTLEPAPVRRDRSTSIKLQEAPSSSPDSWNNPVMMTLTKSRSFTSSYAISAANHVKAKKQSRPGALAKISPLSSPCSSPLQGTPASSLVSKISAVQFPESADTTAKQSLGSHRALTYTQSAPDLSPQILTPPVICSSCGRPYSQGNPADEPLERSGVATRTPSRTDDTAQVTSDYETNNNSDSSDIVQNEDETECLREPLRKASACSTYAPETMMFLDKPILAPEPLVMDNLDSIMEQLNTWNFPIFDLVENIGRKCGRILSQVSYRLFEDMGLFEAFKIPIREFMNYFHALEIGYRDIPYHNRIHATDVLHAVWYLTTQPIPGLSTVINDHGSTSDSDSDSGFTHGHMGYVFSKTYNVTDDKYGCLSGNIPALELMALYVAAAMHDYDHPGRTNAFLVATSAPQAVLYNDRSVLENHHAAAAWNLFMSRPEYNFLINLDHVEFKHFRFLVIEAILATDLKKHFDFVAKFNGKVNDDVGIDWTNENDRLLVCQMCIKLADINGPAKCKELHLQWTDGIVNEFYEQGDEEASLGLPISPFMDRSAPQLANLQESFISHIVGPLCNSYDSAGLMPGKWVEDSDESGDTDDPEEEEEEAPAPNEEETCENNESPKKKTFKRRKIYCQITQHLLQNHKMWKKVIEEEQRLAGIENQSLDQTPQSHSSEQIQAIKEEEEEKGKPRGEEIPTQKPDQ
Chain of Bile salt export pump (O95342 whole entry): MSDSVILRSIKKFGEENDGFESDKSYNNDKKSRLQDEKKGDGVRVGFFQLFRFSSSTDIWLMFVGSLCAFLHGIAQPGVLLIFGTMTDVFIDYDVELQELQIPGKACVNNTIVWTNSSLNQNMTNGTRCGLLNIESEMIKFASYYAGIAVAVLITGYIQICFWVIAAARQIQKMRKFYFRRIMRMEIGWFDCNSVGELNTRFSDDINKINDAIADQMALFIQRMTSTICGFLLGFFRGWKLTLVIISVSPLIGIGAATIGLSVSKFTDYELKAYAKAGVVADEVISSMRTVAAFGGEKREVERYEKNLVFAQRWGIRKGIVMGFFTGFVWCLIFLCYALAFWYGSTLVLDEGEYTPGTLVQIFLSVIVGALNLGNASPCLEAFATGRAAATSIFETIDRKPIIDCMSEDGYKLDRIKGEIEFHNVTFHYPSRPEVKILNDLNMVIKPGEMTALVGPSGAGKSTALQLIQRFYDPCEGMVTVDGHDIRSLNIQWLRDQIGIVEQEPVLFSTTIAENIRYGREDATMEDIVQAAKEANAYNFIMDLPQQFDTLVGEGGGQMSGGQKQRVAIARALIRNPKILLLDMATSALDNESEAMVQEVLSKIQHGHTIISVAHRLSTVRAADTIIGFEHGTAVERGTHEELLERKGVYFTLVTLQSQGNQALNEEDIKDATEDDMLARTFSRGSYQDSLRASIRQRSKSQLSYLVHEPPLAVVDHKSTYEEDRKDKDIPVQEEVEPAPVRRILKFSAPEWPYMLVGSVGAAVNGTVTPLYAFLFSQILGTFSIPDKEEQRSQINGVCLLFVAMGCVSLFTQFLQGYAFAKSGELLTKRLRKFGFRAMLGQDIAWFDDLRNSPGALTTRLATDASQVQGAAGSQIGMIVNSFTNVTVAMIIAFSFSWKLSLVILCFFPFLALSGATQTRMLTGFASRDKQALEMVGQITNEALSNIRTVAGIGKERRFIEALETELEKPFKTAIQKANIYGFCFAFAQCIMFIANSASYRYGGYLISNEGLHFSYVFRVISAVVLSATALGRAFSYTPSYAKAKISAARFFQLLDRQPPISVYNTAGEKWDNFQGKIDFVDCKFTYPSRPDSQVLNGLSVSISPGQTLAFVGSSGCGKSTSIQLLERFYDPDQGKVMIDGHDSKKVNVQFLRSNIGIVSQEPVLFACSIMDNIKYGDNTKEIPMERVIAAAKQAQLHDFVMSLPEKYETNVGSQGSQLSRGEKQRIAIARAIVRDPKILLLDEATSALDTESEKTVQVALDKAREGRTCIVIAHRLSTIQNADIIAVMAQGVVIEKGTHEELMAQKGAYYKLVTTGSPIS
Chain of Sodium-dependent dopamine transporter (Q01959 whole entry): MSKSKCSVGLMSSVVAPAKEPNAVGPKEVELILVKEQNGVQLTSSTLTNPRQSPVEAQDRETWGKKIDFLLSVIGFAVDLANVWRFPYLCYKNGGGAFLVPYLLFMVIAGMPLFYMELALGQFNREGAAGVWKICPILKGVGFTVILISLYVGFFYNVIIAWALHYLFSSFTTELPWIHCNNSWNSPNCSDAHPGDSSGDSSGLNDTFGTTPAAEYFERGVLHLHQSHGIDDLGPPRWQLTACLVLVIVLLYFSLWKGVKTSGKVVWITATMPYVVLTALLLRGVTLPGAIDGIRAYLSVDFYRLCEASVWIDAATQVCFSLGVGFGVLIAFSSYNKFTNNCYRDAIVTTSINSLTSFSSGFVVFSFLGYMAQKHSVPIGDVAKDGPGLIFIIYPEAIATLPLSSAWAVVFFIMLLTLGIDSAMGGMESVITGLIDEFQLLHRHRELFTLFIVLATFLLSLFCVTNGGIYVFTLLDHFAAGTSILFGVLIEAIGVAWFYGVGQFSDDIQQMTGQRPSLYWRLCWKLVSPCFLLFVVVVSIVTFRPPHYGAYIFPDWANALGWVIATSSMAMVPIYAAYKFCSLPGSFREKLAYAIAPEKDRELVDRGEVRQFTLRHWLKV
Chain of Voltage-gated inwardly rectifying potassium channel KCNH2 (Q12809 whole entry): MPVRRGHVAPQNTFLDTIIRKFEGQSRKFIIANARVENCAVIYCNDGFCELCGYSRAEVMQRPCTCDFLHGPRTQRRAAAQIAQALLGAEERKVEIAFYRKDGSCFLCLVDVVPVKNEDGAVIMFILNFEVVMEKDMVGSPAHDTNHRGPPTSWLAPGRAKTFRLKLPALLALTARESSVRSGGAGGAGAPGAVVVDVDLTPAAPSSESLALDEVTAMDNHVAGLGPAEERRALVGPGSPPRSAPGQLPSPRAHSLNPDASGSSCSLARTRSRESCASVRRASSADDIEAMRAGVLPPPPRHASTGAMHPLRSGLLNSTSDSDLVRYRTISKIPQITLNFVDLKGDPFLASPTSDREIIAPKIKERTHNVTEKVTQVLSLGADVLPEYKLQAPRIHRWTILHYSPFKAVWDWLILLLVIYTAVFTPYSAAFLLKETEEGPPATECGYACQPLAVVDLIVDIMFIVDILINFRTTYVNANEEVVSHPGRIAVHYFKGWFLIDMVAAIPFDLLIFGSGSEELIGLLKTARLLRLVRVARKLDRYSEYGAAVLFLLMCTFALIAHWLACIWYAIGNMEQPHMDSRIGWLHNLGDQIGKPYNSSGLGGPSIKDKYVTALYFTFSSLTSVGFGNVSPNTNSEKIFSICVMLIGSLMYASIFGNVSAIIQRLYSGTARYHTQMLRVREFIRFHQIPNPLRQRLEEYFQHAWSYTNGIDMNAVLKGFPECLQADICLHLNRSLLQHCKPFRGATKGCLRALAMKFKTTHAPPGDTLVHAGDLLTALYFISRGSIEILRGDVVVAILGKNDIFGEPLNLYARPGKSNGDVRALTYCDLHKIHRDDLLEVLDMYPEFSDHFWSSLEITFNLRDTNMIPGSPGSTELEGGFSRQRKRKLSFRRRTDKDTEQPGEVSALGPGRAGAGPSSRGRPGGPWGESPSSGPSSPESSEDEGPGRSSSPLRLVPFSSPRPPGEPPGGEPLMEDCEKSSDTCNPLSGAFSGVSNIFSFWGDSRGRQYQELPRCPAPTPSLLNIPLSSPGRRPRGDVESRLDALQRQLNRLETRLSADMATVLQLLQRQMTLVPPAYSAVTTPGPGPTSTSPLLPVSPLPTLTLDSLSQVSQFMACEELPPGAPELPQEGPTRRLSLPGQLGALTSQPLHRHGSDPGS
Chain of Delta-type opioid receptor (P41143 whole entry): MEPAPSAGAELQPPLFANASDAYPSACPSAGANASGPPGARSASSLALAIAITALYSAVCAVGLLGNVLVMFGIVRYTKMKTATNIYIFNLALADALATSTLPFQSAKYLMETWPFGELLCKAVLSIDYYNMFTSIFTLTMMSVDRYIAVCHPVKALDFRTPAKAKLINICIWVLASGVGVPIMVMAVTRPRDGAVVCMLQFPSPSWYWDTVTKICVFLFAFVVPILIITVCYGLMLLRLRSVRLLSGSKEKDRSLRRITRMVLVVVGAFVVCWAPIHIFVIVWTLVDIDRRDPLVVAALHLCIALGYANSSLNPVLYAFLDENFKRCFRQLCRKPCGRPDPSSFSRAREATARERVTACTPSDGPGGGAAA
Chain of 5-hydroxytryptamine receptor 2B (P41595 whole entry): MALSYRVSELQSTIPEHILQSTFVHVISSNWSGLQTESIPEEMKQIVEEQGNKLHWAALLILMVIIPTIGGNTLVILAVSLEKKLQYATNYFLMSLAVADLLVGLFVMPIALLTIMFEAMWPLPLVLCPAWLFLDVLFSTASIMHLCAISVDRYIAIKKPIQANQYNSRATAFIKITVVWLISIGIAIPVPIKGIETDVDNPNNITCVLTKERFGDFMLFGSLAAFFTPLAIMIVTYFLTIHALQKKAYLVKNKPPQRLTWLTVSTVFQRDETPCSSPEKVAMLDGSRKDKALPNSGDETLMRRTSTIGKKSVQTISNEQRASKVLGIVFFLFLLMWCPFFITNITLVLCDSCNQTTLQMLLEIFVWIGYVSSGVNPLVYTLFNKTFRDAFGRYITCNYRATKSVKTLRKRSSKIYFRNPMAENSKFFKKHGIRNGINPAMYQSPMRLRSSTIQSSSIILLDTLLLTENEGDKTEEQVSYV

AC50 (Bile salt export pump) [µM]	AC50 (Adenosine receptor A3) [µM]	AC50 [1] [µM]	AC50 [2] [µM]	AC50 [3] [µM]	AC50 (D(1A) dopamine receptor) [µM]	AC50 [4] [µM]	AC50 [5] [µM]	AC50 (Motilin receptor) [µM]	AC50 [7] [µM]	AC50 [8] [µM]	AC50 [9] [µM]	AC50 [10] [µM]	SMILES	AC50 [6] [µM]
> 300	> 30	> 10	> 10	> 10	> 10	> 10	> 10	> 10	> 10	> 30	> 10	> 30	CC(C)NCC(O)COc1ccc(COCCOC(C)C)cc1 (stereo not given) [BISOPROLOL]	> 30
280	> 10	> 10	> 10	> 10	> 10	> 10	> 30	> 10	> 30	> 30	> 10	> 30	CC(C)(C(=O)c1cccnc1)c1cccnc1 [METYRAPONE]	> 30
> 300	> 30	> 30	> 30	> 30	> 30	> 30	> 30	> 30	> 30	> 30	> 30	> 30	NC(=O)c1ncn([C@@H]2O[C@H](CO)[C@@H](O)[C@H]2O)c1O [MIZORIBINE]	> 30
1.7	> 30	> 30	> 30	> 30	> 30	> 30	> 30	> 30	> 30	1.4	> 30	5.3	COc1ccc2c(c1)C(=O)N(CCc1ccc(S(=O)(=O)NC(=O)NC3CCCCC3)cc1)C(=O)C2(C)C [GLIQUIDONE]	> 30
30.3	11.9	> 10	> 10	> 10	> 10	> 10	> 10	> 10	> 30	> 30	1.1	18	Cc1ccc(C(=O)c2cc(O)c(O)c([N+](=O)[O-])c2)cc1 [TOLCAPONE]	1.95
> 300	24	> 30	> 30	> 30	> 30	> 30	> 30	> 30	> 30	> 30	> 30	> 30	N[C@@H](C(=O)N[C@@H]1C(=O)N2C(C(=O)O)=C(Cl)CS[C@H]12)c1ccccc1 [CEFACLOR ANHYDROUS]	> 30

SMILES	AC50 (Bile salt export pump) [µM]	AC50 (Adenosine receptor A3) [µM]	AC50 [1] [µM]	AC50 [2] [µM]	AC50 [3] [µM]	AC50 (D(1A) dopamine receptor) [µM]	AC50 [4] [µM]	AC50 [5] [µM]	AC50 (Motilin receptor) [µM]	AC50 [7] [µM]	AC50 [8] [µM]	AC50 [9] [µM]	AC50 [10] [µM]	AC50 [6] [µM]
C#C[C@]1(O)CC[C@H]2[C@@H]3CCc4cc(O)ccc4[C@H]3CC[C@@]21C [ETHINYL ESTRADIOL]	38	13.5	> 10	> 10	> 10	> 10	> 10	> 30	> 10	> 30	16	2.81	16	> 30
Nc1nc(N)c2nc(-c3ccccc3)c(N)nc2n1	> 300	> 30	> 30	> 30	> 30	> 30	> 30	> 30	> 30	> 30	24	> 30	> 30	> 30
Oc1ncnc2[nH]ncc12 [ALLOPURINOL]	> 300	> 30	> 10	> 10	> 10	> 10	> 10	> 30	> 10	> 30	> 30	> 10	> 30	> 30
C[C@H]1O[C@H](O[C@H]2[C@H](O)[C@@H](O)[C@@H](O[C@H]3[C@H](O)[C@@H](O)C(O)O[C@@H]3CO)O[C@@H]2CO)[C@H](O)[C@@H](O)[C@@H]1N[C@H]1C=C(CO)[C@@H](O)[C@H](O)[C@H]1O (stereo not given in full) [ACARBOSE]	> 300	> 30	> 30	> 10	> 10	> 10	> 30	> 10	> 30	> 10	> 30	> 30	> 30	> 30
